Key:
fat cell = assay: Fat cell size in obesity-induced ob/ob mouse model (H&E staining); type: in vivo; settings: ob/ob mice, oral 2.5 mg/kg, 42 days; vs saline group, p<0.005
Description: (§1) 6-week-old male ob/ob mice were selected. Weight gain was induced by a general diet for 6 weeks. Then, the effect of the PPB prepared in Example 1 was investigated.
(§2) Particularly, the mice were adapted to the animal room environment for 1 week. Then, the mice were divided into two groups, which were fed with a general diet for 42 days (6 weeks). These two groups were the control (saline group) that was fed with a general diet and orally administered with saline and the experimental group (PPB group) that was fed with a general diet and orally administered with PPB at the dose of 2.5 mg/kg.
The adipose tissues were obtained from the mice of the control group and the PPB-treated experimental group prepared in Example <4-1>, and the changes of fat cell size were observed.
Particularly, the adipose tissues obtained from the mice of the control and experimental groups were made into a paraffin block, which was sectioned in the thickness of 7 μm, followed by hematoxylin-eosin staining (H&E staining). The stained tissues were photographed with Axio Imager Z1 upright microscopy system and the cell size was measured by using ImageJ 1.50i software.

liver tissue = assay: Fat accumulation in liver tissue of ob/ob mouse (Oil-red-O); type: in vivo; settings: ob/ob mice, oral 2.5 mg/kg, 42 days; vs saline group, p<0.005
Description: as §1, §2
The liver tissues were obtained from the mice of the control group and the experimental group prepared in Example <4-1>. The obtained liver tissues were made into a frozen block, which was sectioned in the thickness of 10 μm. The tissue sections were stained with 0.375% (w/v) Oil-red-O powder. The stained tissues were photographed with Axio Imager Z1 upright microscopy system and the fat accumulation area was measured by using ImageJ 1.50i software.

[1] = system: mouse-derived vascular endothelial cells (SVEC4-10); assay: PPB in vascular endothelial cell death model (palmitic acid), MTT assay; type: cell-based; settings: 0.25 mM palmitic acid, 24 hours
Description: Mouse-derived vascular endothelial cells (SVEC4-10) in DMEM (Dulbecco's Modified Eagle Medium) supplemented with 10% fetal bovine serum and 1% antibiotics (penicillin/streptomycin) were cultured in a 37° C., 5% CO2 incubator. To obtain sufficient cells, the cells were cultured in 100 Ø plastic dishes. When the cells were cultured until the bottom of the dish was covered 80% by the cells, the adhered cells were detached using trypsin/EDTA solution and then sub-cultured.
The mouse-derived vascular endothelial cells (SVEC4-10) obtained in Example <5-1> were treated with 0.25 mM palmitic acid, leading to the construction of a vascular endothelial cell death model (in vitro).
The cells were treated with PPB at different concentrations for 24 hours. 24 hours later, MTT assay was performed to confirm the number of survived cells. From the result, the effect of PPB on the survival of vascular endothelial cells in the presence of palmitic acid was analyzed.

[2] = system: Plasminogen activator inhibitor type-1 (PAI-1); assay: Plasma PAI-1 level in ob/ob mouse by ELISA kit; type: in vivo; settings: ob/ob mice, oral 2.5 mg/kg, 42 days; compared with saline control group
Description: as §1, §2
In order to measure PAI-1, the biomarker for improving blood circulation, blood was collected from the mouse, and the plasma PAI-1 level was measured by using an ELISA kit.

Oc1cc(O)cc(Oc2c(O)cc(Oc3cc(O)cc(Oc4c(O)cc(O)c5c4Oc4c(O)cc(O)c(-c6c(O)cc(O)c7c6Oc6c(O)cc(O)c(Oc8cc(O)cc(O)c8)c6O7)c4O5)c3)cc2O)c1 [PPB, pyrogallol-phloroglucinol-6,6-bieckol]
fat cell size (fat cell): significantly decreased | fat accumulation area in liver tissue (liver tissue): significantly decreased | number of survived cells ([1]; 5 ug/ml, vs control non-treated with PPB): not much different | survival rate of vascular endothelial cells ([1]; 10 ug/ml): significantly increased | blood PAI-1 level [2]: reduced
